These results are taken from patent US5929110A, “Fatty acid analogs and prodrugs” (G. D. Searle & Co., priority 1998, dated 1999).

By EC50 is commonly meant the concentration at which the effect is half-maximal.

In this experiment the test system is HIV-1. In words: inhibition of HIV-1; reduction of cytopathogenic effect in virus-infected Leu-3a-positive CEM cells (MTT assay). The settings on record: Human immunodeficiency virus 1, CCRF-CEM, multiplicity of infection 0.1, MTT read on 7th to 9th day post-infection. The experiment is classed as cell-based, strain HTVL-IIIB. The procedure:
Inhibitory activity against HIV-1 was shown by tests involving plating of susceptible human host cells which are syncytium-sensitive with and without virus in microculture plates, adding various concentrations of the test compound, incubating the plates for 7 to 9 days (during which time infected, non-drug treated control cells are largely or totally destroyed by the virus), and then determining the remaining number of viable cells with a colorometric endpoint.
Various illustrative compounds synthesized above were tested for inhibition of HIV-1 in a test which measured reduction of cytopathogenic effect in virus-infected syncytium-sensitive Leu-3a-positive CEM cells grown in tissue culture as follows:
Tissue culture plates were incubated at 37° C. in a humidified, 5% CO2 atmosphere and observed microscopically for toxicity and/or cytopathogenic effect (CPE). At 1 hour prior to infection each test article was prepared from the frozen stock, and a 20 μl volume of each dilution (prepared as a 10× concentration) was added to the appropriate wells of both infected and uninfected cells.
Assays were done in 96-well tissue culture plates. CEM cells were treated with polybrene at a concentration of 2 μg/ml, and an 80 μl volume of cells (1×10^4 cells) was dispensed into each well. A 100 μl volume of each test article dilution (prepared as a 2× concentration) was added to 5 wells of cells, and the cells were incubated at 37° C. for 1 hour. A frozen culture of HIV-1, strain HTVL-IIIB, was diluted in culture medium to a concentration of 5×10^4 TCID50 per ml, and a 20 μl volume (containing 10^3 TCID50 of virus) was added to 3 of the wells for each test article concentration. […] A 20 μl volume of normal culture medium was added to the remaining wells to allow evaluation of cytotoxicity. Each plate contained 6 wells of untreated, uninfected, cell control samples and 6 wells of untreated, infected, virus control samples.
On the 7th to 9th day post-infection, the cells in each well were resuspended and a 100 μl sample of each cell suspension was removed for use in an MTT assay. A 20 μl volume of a 5 mg/ml solution of 3-(4,5-dimethylthiazol-2-yl)-2,5-diphenyltetrazolium bromide (MTT) was added to each 100 μl cell suspension, and the cells were incubated at 37° C. in 5% CO2 for 4 hours. […] A 100 μl volume of a solution of 10% sodium dodecyl sulfate in 0.01N hydrochloric acid was added to each sample, and the samples were incubated overnight. The absorbance at 590 nm was determined for each sample using a Molecular Devices Vmax microplate reader. This assay detects drug-induced suppression of viral CPE, as well as drug cytotoxicity, by measuring the generation of MTT-formazan by surviving cells.
Background: Protection from cytopathic effect is a common read-out in antiviral testing.

In turn, `COCCCCCCCCCCCC(=O)O` [Example 1, 12-Methoxydodecanoic Acid] had a concentration for a half-maximal effect (EC50) of 4.3 µM.
`COCCCCCCCOCCCC(=O)O` [Example 5, 4-[(7-Methoxyheptyl)oxy]butanoic Acid] showed an EC50 greater than 430 µM.
Compound `CCCCCCCCCCOCCC#N` [Example 6, 3-(Decyloxy)propanenitrile] came in with an EC50 greater than 470 µM.
In the case of `CCCCCCCCCCOCCC(=O)O` [Example 7, 3-(Decyloxy)propanoic Acid], the EC50 is 18.7 µM.
Compound `COCCCCCCCCCCCC(=O)OC` [Example 8, Methyl 12-Methoxydodecanoate] displayed an EC50 of 6.1 µM.
On to `CCOC(=O)CCCCCCCCCCCOC` [Example 9, Ethyl 12-Methoxydodecanoate], for which the EC50 worked out at 16.6 µM.
In the case of `COCCCCCCCCCCCC(N)=O` [Example 12, 12-Methoxydodecanamide], the EC50 was determined as 192 µM.
`COCCCCCCCCCCCC(N)=S` [Example 13, 12-Methoxydodecanethioamide] came in with an EC50 greater than 400 µM.
To `CCN(CC)C(=O)CCCCCCCCCCCOC` [Example 15, N,N-Diethyl-12-methoxydodecanamide] belongs greater than 350 µM; to `COCCCCCCCCCCCC(=O)NCCc1ccccc1` [Example 16, 12-Methoxy-N-(2-phenylethyl) dodecanamide], 4.5 µM; to `CCCCCCCCCCOCCC(=O)N(CC)CC` [Example 19, 3-(Decyloxy)-N,N-diethylpropanamide], greater than 350 µM.
`CCCCCCCCCCOCCC(=O)NCc1ccccc1` [Example 20, 3-(Decyloxy)-N-(phenylmethyl)propanamide] showed an EC50 greater than 310 µM.
Take `CCOC(=O)CNC(=O)CCCCCCCCCCCOC` [Example 21, N-(12-Methoxy-1-oxododecyl)-glycine, Ethyl ester]: a half-maximal response (EC50) required 8.6 µM.
The compound `CCOC(=O)CN(Cc1ccccc1)C(=O)CCCCCCCCCCCOC` [Example 22, N-(12-Methoxy-1-oxododecyl)-N-(phenylmethyl)-glycine, Ethyl ester] displayed an EC50 greater than 245 µM.
Compound `COCCCCCCCCCCCC(=O)NCC(=O)OC(C)(C)C` [Example 23] registered a half-maximal effective concentration (EC50) of 9.3 µM.
The figure for `CCOC(=O)CNC(=O)CNC(=O)CCCCCCCCCCCOC` [Example 24, N-[N-(12-Methoxy-1-oxododecyl)glycyl]glycine, Ethyl ester] is greater than 260 µM.
The compound `CCOC(=O)CN(CC(=O)OCC)C(=O)CCCCCCCCCCCOC` [Example 25, N-(2-Ethoxy-2-oxoethyl)-N-(12-methoxy-1-oxododecyl)glycine, Ethyl ester] yielded a half-maximal effective concentration (EC50) greater than 240 µM.
The figure for `CCOC(=O)CN(C)C(=O)CCCCCCCCCCCOC` [Example 26, N-(12-Methoxy-1-oxododecyl)-N-methylglycine, Ethyl ester] is greater than 300 µM.
In turn, `CCOC(=O)CN(C(=O)CCCCCCCCCCCOC)c1ccccc1` [Example 28, N-(12-Methoxy-1-oxododecyl)-N-phenylglycine, Ethyl ester] displayed an EC50 greater than 250 µM.
The figure for `CCCCCCCCCCOCCC(=O)NCC(=O)OCC` [Example 29, N-[3-(Decyloxy)-1-oxopropyl]glycine, Ethyl ester] is greater than 315 µM; for `CCOC(=O)CCNC(=O)CCCCCCCCCCCOC` [Example 30, N-(12-Methoxy-1-oxododecyl)-β-alanine, Ethyl ester] it is 6.1 µM.
In the case of `CCOC(=O)[C@H](C)NC(=O)CCCCCCCCCCCOC` [Example 31, N-(12-Methoxy-1-oxododecyl)-L-alanine, Ethyl ester], a half-maximal effect (EC50) was put at 24 µM.
In turn, `CCOC(=O)[C@@H](C)NC(=O)CCCCCCCCCCCOC` [Example 34, N-(12-Methoxy-1-oxododecyl)-D-alanine, Ethyl ester] displayed an EC50 greater than 300 µM.
For `CCOC(=O)C(C)CNC(=O)CCCCCCCCCCCOC` (stereo not shown) [Example 36, Ethyl 2-[[(12-methoxy-1-oxododecyl)amino]-2-methyl]propanoate], a half-maximal response (EC50) required 5.8 µM.
In the case of `CCOC(=O)[C@H](C)CNC(=O)CCCCCCCCCCCOC` [Example 39, Ethyl 3-[[(12-methoxy-1-oxododecyl)amino]-2R-methyl]propanoate], the 50% effective concentration (EC50) turned out to be 6.7 µM.
For the compound `CCOC(=O)C(CNC(=O)CCCCCCCCCCCOC)Cc1ccccc1` (stereo not drawn) [Example 42, Ethyl α-[[(12-Methoxy-1-oxododecyl)amino]methyl]benzenepropanoate], the response was half-maximal at 6.4 µM (EC50).
On to `CCOC(=O)[C@@H](NC(=O)CCCCCCCCCCCOC)[C@@H](C)CC` [Example 45, N-(12-Methoxy-1-oxododecyl)-L-isoleucine, Ethyl ester], for which the half-maximal effective concentration (EC50) was less than 2.7 µM.
`CCOC(=O)[C@H](NC(=O)CCCCCCCCCCCOC)[C@H](C)CC` [Example 48, N-(12-Methoxy-1-oxododecyl)-D-isoleucine, Ethyl ester] had an EC50 greater than 265 µM.
To `COCCCCCCCCCCCC(=O)N[C@@H](Cc1ccccc1)C(=O)OC(C)(C)C` [Example 50, N-(12-Methoxy-1-oxododecyl)-L-phenylalanine, 1,1-Dimethylethyl ester] belongs 11.1 µM; to `CCOC(=O)[C@@H](Cc1ccccc1)NC(=O)CCCCCCCCCCCOC` [Example 52, N-(12-Methoxy-1-oxododecyl)-D-phenylalanine, Ethyl ester], greater than 245 µM.
The compound `COCCCCCCCCCCCC(=O)N[C@H](Cc1ccccc1)C(=O)OC(C)(C)C` [Example 54, N-(12-Methoxy-1-oxododecyl)-D-phenylalanine, 1,1-Dimethylethyl ester] returned a 50% effective concentration (EC50) greater than 230 µM.
`CCCCCCCCCCOCCC(=O)N[C@@H](Cc1ccccc1)C(=O)OCC` [Example 55, N-(3-(Decycloxy)-1-oxopropyl]-L-phenylalanine, Ethyl ester] came in with an EC50 greater than 240 µM.
`CCOC(=O)[C@H](CCC(=O)OCc1ccccc1)NC(=O)CCCCCCCCCCCOC` [Example 59, N-(12-methoxy-1-oxododecyl)-L glutamic acid, 1-Ethyl 5-(Phenylmethyl) ester] yielded an EC50 of 7.3 µM.
The compound `CCOC(=O)[C@@H](CCC(=O)OCc1ccccc1)NC(=O)CCCCCCCCCCCOC` [Example 62, N-(12-methoxy-1-oxododecyl)-D-glutamic acid, 1-Ethyl 5-(Phenylmethyl) ester] came in with an EC50 greater than 205 µM.
To `CCOC(=O)[C@H](CCCCNC(=O)OCc1ccccc1Cl)NC(=O)CCCCCCCCCCCOC` [Example 65, N6-[[(2-Chlorophenyl)methoxy]carbonyl]-N2-(12-methoxy-1oxododecyl)-L-lysine, Ethyl ester] belongs 7.4 µM; to `CCOC(=O)[C@H](Cc1c[nH]c2ccccc12)NC(=O)CCCCCCCCCCCOC` [Example 71, N-(12-Methoxy-1-oxododecyl)-L-tryptophan, Ethyl ester], 18 µM; to `CCOC(=O)[C@@H](Cc1c[nH]c2ccccc12)NC(=O)CCCCCCCCCCCOC` [Example 74, N-(12-Methoxy-1-oxododecyl)-D-tryptophan, Ethyl ester], greater than 221 µM.
In turn, `CCOC(=O)[C@@H](NC(=O)CCCCCCCCCCCOC)[C@@H](C)OCc1ccccc1` [Example 77, N-(12-methoxy-1-oxododecyl)-O-(phenylmethyl)-L-threonine, Ethyl ester] had a concentration giving a half-maximal response (EC50) of 11.8 µM.
As for `CCOC(=O)[C@H](NC(=O)CCCCCCCCCCCOC)[C@H](C)OCc1ccccc1` [Example 80, N-(12-methoxy-1-oxododecyl)-O-(phenylmethyl)-D-threonine, Ethyl ester], the half-maximal effective concentration (EC50) is greater than 225 µM.
Regarding `COCCCCCCCCCCCC(=O)NCC(=O)O` [Example 81], the 50% effective concentration (EC50) is 27.5 µM.
`COCCCCCCCCCCCC(=O)N[C@@H](Cc1ccccc1)C(=O)O` [Example 82, N-(12-Methoxy-1-oxododecyl)-L-phenylalanine] yielded a 50% effective concentration (EC50) of 13 µM.
In turn, `COCCCCCCCCCCCC(=O)N[C@H](Cc1ccccc1)C(=O)O` [Example 83, N-(12-Methoxy-1-oxododecyl)-D-phenylalanine] came in with a concentration for a half-maximal effect (EC50) greater than 265 µM.
Turning to `COCCCCCCCCCCCC#N` [Example 84, 12-Methoxydodecanenitrile], the concentration giving a half-maximal response (EC50) was greater than 470 µM.
To `COCCCCCCCCCCCc1nnn[nH]1` [Example 85, 5-(11-Methoxyundecyl)-1H-tetrazole] belongs greater than 390 µM; to `CCn1nnnc1CCCCCCCCCCCOC` [Example 86A, 1-Ethyl-5-(11-methoxyundecyl)-1H-tetrazole], greater than 350 µM.
The compound `CCn1nnc(CCCCCCCCCCCOC)n1` [Example 86B, 2-Ethyl-5-(11-methoxyundecyl)-2H-tetrazole] gave a concentration giving a half-maximal response (EC50) greater than 350 µM.
